Data set [1] deals with T1, MAO B (Homo sapiens, UniProt P27338).
T1 construct: Autoradiography using [^18F]compound 13 on human brain slices from four brains from patients with diagnosis of Alzheimer's disease; from tissue; host or cells: human brain sections (Alzheimer's disease patients and normal controls), 18 µm cryosections
T1 sequence (P27338 1-520): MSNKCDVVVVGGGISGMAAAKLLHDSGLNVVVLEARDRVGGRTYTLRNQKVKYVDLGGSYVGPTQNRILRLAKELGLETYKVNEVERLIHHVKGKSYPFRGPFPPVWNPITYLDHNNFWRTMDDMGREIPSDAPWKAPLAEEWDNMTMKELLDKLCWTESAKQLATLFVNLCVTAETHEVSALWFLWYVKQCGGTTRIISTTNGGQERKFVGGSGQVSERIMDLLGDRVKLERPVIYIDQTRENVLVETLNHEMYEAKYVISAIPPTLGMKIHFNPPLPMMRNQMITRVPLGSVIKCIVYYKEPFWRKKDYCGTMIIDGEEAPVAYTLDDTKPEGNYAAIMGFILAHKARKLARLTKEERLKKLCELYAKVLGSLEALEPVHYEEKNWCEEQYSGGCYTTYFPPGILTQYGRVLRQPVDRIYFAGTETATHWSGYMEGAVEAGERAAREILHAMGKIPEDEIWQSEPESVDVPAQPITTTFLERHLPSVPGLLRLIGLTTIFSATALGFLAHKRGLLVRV
Briefly: Autoradiography with [18F]compound 13 on human brain sections (Alzheimer's disease), blocking with MAO B inhibitors. It counts as binding. The procedure: (§1) Thereafter, the slides were removed and brought to room temperature. […] The sections were dipped two times into ice cold distilled water, dried at room temperature and exposed to PhosphorImanger plates (FUJI BAS 5000) over night. For detection of the specificity of the signals an excess (10 μM) of Deprenyl, Pargylin (both for MAO B) and Clorgyline (for MAO A), respectively, was used. After exposure, the sections were immunohistochemically stained using a standard protocol with an anti-GFAP antibody to detect reactive astrocytes. Amyloid β plaques were detected with BAY 949172 (Rowe C C et al. Lancet Neutol 2008; 7: 129-135) using the binding protocol as described above.
FIG. 1A Autoradiographic signal after exposure on the PhosphorImager plate.
FIG. 2A Autoradiographic signal after exposure on the PhosphorImager plate.

Data set [2] concerns the target T2, MAO A (Homo sapiens, UniProt P21397).
T2 construct: Autoradiography using [^18F]compound 13 on human brain slices from four brains from patients with diagnosis of Alzheimer's disease; from tissue; host or cells: human brain sections (Alzheimer's disease patients), 18 µm cryosections
T2 sequence (P21397 1-527): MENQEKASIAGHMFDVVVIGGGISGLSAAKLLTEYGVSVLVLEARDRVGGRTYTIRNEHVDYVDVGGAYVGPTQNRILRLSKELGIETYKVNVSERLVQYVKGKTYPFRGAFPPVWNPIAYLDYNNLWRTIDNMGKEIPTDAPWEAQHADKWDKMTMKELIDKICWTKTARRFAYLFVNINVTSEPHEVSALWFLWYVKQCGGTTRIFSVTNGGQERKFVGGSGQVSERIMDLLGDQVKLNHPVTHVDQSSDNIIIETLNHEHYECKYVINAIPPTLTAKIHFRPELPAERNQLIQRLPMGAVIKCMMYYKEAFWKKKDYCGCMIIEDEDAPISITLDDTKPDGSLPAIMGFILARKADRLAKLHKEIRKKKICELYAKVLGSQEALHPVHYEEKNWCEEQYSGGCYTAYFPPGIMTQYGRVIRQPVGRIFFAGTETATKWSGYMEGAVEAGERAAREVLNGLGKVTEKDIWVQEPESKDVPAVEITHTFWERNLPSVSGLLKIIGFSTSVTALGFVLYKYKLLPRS
Briefly: Autoradiography with [18F]compound 13 on human brain sections, blocking with MAO A inhibitor clorgyline. It is filed as binding. The note with it: human AD brain slices; excess (10 μM) of Clorgyline. The method, then: as §1
FIG. 2A Autoradiographic signal after exposure on the PhosphorImager plate. Note the black dots in the tissue slices corresponding to areas with amyloid β plaques (see examples in FIG. 3).

A short description of data set [3]: Biodistribution in NMRI mice (gamma counter). It is filed as in vivo. The procedure: For each time point 3 mice have been used. The mice were injected each with 0.178 MBq[^18F]compound 13. After the respective time points the mice were sacrificed, the organs taken out and measured in a gamma counter. The results were decay corrected.
The nature of data set [4]: Plasma radioactivity and plasma metabolites after injection in a cynomolgus monkey. To be noted: compared with [11C]Deprenyl (and compound 5). An excerpt: Plasma radioactivity profiles have been monitored over time. […] In addition, metabolites occurring in plasma over time have been monitored (FIGS. 8 and 9) for both ligands.
The nature of data set [5]: PET brain uptake (time activity curves, SUV) in a cynomolgus monkey. It is filed as in vivo. To be noted: e.g. striatum.
For data set [6] the following is noted: literature report; cited from earlier work.

Entries after “also recorded” stand apart in the source; their conditions may differ.

With `C#CCN(C)[C@H](C[18F])Cc1ccccc1` [[^18F]compound 13, N-[(2S)-1-(^18F)fluoro-3-phenylpropan-2-yl]-N-methylprop-2-yn-1-amine], the “correspondence of autoradiographic signal to reactive astrocytes” value in data set [1] (human AD brain slice, GFAP immunoreactivity) is on record as “correspondence of the autoradiographic signal to reactive astrocytes is demonstrated”. In addition, the “relation of autoradiographic signal to amyloid β plaque load” value in data set [1] (human AD brain slices, amyloid detected with BAY 949172) was “the signal density and intensity corresponds with the amyloid β plaque load”. The “blocking of autoradiographic signal by MAO B inhibitors (specificity for MAO B)” value in data set [1] (human AD brain slices, excess (10 μM) of Deprenyl or Pargylin) was “the signals could be blocked with deprenyl and pargylin; also recorded: the signals could be completely blocked with deprenyl”. Moreover, the “blocking of autoradiographic signal by MAO A inhibitor clorgyline” value in data set [2] was “not with clorgyline”. Also, in data set [3] (2 min p.i.), the “brain uptake of radioactivity” value turned out to be 7.5±0.04 % ID/g. The brain radioactivity was 2.10±0.33 % ID/g in data set [3] (30 min p.i.) and 1.34±0.26 % ID/g in data set [3] (after 4 hours). Moreover, in data set [4], the “in vivo metabolic stability” value was “improved metabolic stability; also recorded: more stable than [^11C]Deprenyl”. In addition, the “uptake and enrichment in specific regions, higher than [11C]Deprenyl” value in data set [5] is reported as “about 10%”.
For `C#CCN(C)CCCCCC[18F]` [compound 5], the “degradation to metabolite (reported)” value in data set [6] is “degraded quickly towards a polar [^18F]-labelled metabolite”.

The record behind these values is patent US10266506B2, “Compounds for use in imaging, diagnosing and/or treatment of diseases of the central nervous system or of tumors” (PIRAMAL IMAGING SA, priority 2007, dated 2019).
